Data published in patent US7445641B1, “Biomaterials modified with superoxide dismutase mimics” (priority 1999, dated 2008).

How the values were obtained:
[1] = Stopped-flow kinetic analysis of superoxide dismutation; format: biochemical; design: kcat pH 8.1 / kcat pH 7.4: unit not given here
From the text: Stopped-flow kinetic analysis is an accurate and direct method for quantitatively monitoring the decay rates of superoxide in water.
For the attainment of consistent and accurate measurements all reagents were biologically clean and metal-free. To achieve this, all buffers (Calbiochem) were biological grade, metal-free buffers and were handled with utensils which had been washed first with 0.1N HCl, followed by purified water, followed by a rinse in a 10^−4 M EDTA bath at pH 8, followed by a rinse with purified water and dried at 65° C. for several hours. Dry DMSO solutions of potassium superoxide (Aldrich) were prepared under a dry, inert atmosphere of argon in a Vacuum Atmospheres dry glovebox using dried glassware. The DMSO solutions were prepared immediately before every stopped-flow experiment. A mortar and pestle were used to grind the yellow solid potassium superoxide (~100 mg). The powder was then ground with a few drops of DMSO and the slurry transferred to a flask containing an additional 25 ml of DMSO. The resultant slurry was stirred for ½ h and then filtered. This procedure gave reproducibly ~2 mM concentrations of superoxide in DMSO. These solutions were transferred to a glovebag under nitrogen in sealed vials prior to loading the syringe under nitrogen. It should be noted that the DMSO/superoxide solutions are extremely sensitive to water, heat, air, and extraneous metals. A fresh, pure solution has a very slight yellowish tint.
Water for buffer solutions was delivered from an in-house deionized water system to a Barnstead Nanopure Ultrapure Series 550 water system and then double distilled, first from alkaline potassium permanganate and then from a dilute EDTA solution. For example, a solution containing 1.0 g of potassium permanganate, 2 liters of water and additional sodium hydroxide necessary to bring the pH to 9.0 were added to a 2-liter flask fitted with a solvent distillation head. This distillation will oxidize any trace of organic compounds in the water. The final distillation was carried out under nitrogen in a 2.5-liter flask containing 1500 ml of water from the first still and 1.0×10^−6 M EDTA. This step will remove remaining trace metals from the ultrapure water. To prevent EDTA mist from volatilizing over the reflux arm to the still head, the 40-cm vertical arm was packed with glass beads and wrapped with insulation. This system produces deoxygenated water that can be measured to have a conductivity of less than 2.0 nanomhos/cm^2.
The stopped-flow spectrometer system was designed and manufactured by Kinetic Instruments Inc. (Ann Arbor, Mich.) and was interfaced to a MAC IICX personal computer. The software for the stopped-flow analysis was provided by Kinetics Instrument Inc. and was written in QuickBasic with MacAdios drivers. Typical injector volumes (0.10 ml of buffer and 0.006 ml of DMSO) were calibrated so that a large excess of water over the DMSO solution were mixed together. The actual ratio was approximately 19/1 so that the initial concentration of superoxide in the aqueous solution was in the range 60-120 μM. […]

[2] = polypropylene admixed 2% by weight, melted at 250° C., extracted with pure water
Method: 0.105 g of Compound 38 was added to 4.9 g of cryoground polypropylene. The mixture was melted at 250° C. and extruded into a strand and a fiber. In this manner, a polypropylene modified with a non-proteinaceous catalyst, 2% by weight, was made. The product strand was cryoground and extracted with pure water.

Compound | kcat pH 7.4 [1] | kcat pH 8.1 [1] | elution of the admixed compound from the cryoground polymer [2] | activity of compound extracted from the strand ([1]; extracted with pure water from polypropylene strand, confirmed by stopped-flow kinetic analysis and HPLC-UV)
C[C@@H]1C[N]2[C@@H](CCCN)C[N]3[C@@H]4CCCC[C@H]4[N]4CC[N]5[C@@H](C)C[N]1[Mn]2435([Cl])[Cl] [Compound 31] | 2.97 | 2.91 | – | –
C[C@@H]1C[N]2[C@H]3CCCC[C@H]3[N]3CC[N]4C5CCCCC5[N]5CC[N]1[Mn]5432([Cl])[Cl] (some centres unmarked) [Compound 18] | 15.00 | 4.00 | – | –
[Cl-].[Cl][Fe]1234([Cl])[N]5CC[N]1C1CCCCC1[N]2CC[N]3C1CCCCC1[N]4CC5 (centres unmarked) [Compound 20] | 3.29 | 0.93 | – | –
C[C@H](CCCNCCC[C@H]1C[N]2[C@@H]3CCCC[C@H]3[N]3CC[N]4CC[N]5CC[N]1[Mn]5432([Cl])[Cl])[C@H]1CCC2[C@@H]3CC[C@@H]4C[C@H](O)CC[C@]4(C)C3CC[C@@]21C (some centres unmarked) [Compound 15] | 2.41 | 0.77 | – | –
CC(=O)OC[C@@H]1C[N]2CC[N]3[C@@H](COC(C)=O)C[N]4[C@H](COC(C)=O)C[N]5[C@@H](COC(C)=O)C[N]1[Mn]2345([Cl])[Cl] [Compound 33] | 7.27 | 4.08 | – | –
NCCC[C@H]1C[N]2[C@H]3CCCC[C@H]3[N]3CC[N]4[C@H]5CCCC[C@H]5[N]5CC[N]1[Mn]5342([Cl])[Cl] [Compound 14] | 7.58 | 3.84 | – | –
[Cl][Mn]1234([Cl])[N]5CC[N]1CC[N]2CC[N]3CC[N]4CC5 [Compound 1] | 4.13 | 2.24 | – | –
OC[C@@H]1C[N]2CC[N]3[C@@H](CO)C[N]4[C@H](CO)C[N]5[C@@H](CO)C[N]1[Mn]2345([Cl])[Cl] [Compound 23] | 6.61 | 3.47 | – | –
CC(C)(C)SC[C@H]1C[N]2[C@@H]3CCCC[C@H]3[N]3C[C@H](CSC(C)(C)C)[N]4CC[N]5CC[N]1[Mn]5423([Cl])[Cl] [Compound 21] | 2.93 | 1.29 | – | –
NCC[C@H]1C[N]2[C@@H](CCN)C[N]3[C@@H]4CCCC[C@H]4[N]4CC[N]5CC[N]1[Mn]5243([Cl])[Cl] [Compound 16] | 2.48 | 1.97 | – | –
C[C@H]1C[N]2[C@@H](CCCO)C[N]3[C@@H]4CCCC[C@H]4[N]4C[C@H](CCCO)[N]5CC[N]1[Mn]5243([Cl])[Cl] [Compound 27] | 4.83 | 2.50 | – | –
OC[C@@H]1C[N]2[C@@H](CO)C[N]3[C@@H](CO)C[N]4[C@H](CO)C[N]5[C@@H](CO)C[N]1[Mn]4523([Cl])[Cl] [Compound 10] | 2.68 | 2.68 | – | –
C[C@H]1C[N]2[C@@H](C)C[N]3[C@@H](CCCNC(=O)CC(CC(=O)O)NC(=O)CNC(=O)c4cccc(NC(=N)N)c4)C[N]4[C@H]5CCCC[C@H]5[N]5CC[N]1[Mn]3524([Cl])[Cl] (some centres unmarked) [Compound 35] | 4.38 | 2.87 | – | –
N#C[S][Mn]1234([S]C#N)[N]5CC[N]1C1CCCCC1[N]2CC[N]3C1CCCC[C@H]1[N]4CC5 (some centres unmarked) [Compound 22] | 11.40 | 5.03 | – | –
NCCC[C@H]1C[N]2[C@@H]3CCCC[C@H]3[N]3CC[N]4CC[N]5CC[N]1[Mn]5432([Cl])[Cl] [Compound 11] | 4.79 | 2.85 | – | –
COC(=O)C1=C(C(=O)OC)C2OC1C=C2COC[C@H]1C[N]2[C@H](C)C[N]3[C@@H](C)C[N]4CC[N]5[C@H](C)C[N]1[Mn]4523([Cl])[Cl] (some centres unmarked) [Compound 25] | 4.04 | 2.34 | – | –
[Cl][Mn]1234([Cl])[N]5CC[N]1CC[N]2[C@@H](Cc1cnc[nH]1)C[N]3[C@H](Cc1cnc[nH]1)C[N]4CC5 [Compound 7] | 2.00 | 1.58 | – | –
C#CCC1C[N]2CC[N]3CC[N]4CC[N]5CC[N]1[Mn]4352([Cl])[Cl] (centres unmarked) [Compound 4] | – | 1.75 | – | –

Compound | kcat pH 7.4 [1] | kcat pH 8.1 [1] | elution of the admixed compound from the cryoground polymer [2] | activity of compound extracted from the strand ([1]; extracted with pure water from polypropylene strand, confirmed by stopped-flow kinetic analysis and HPLC-UV)
C[C@@H]1C[N]2[C@@H](CCCNC(=O)CCC(=O)O)C[N]3[C@@H]4CCCC[C@H]4[N]4CC[N]5[C@@H](C)C[N]1[Mn]2435([Cl])[Cl] [Compound 32] | 1.74 | 1.43 | – | –
[Cl-].[Cl-].[NH3+]CCCC[C@@H]1C[N]2[C@@H](CCCC[NH3+])C[N]3[C@@H]4CCCC[C@H]4[N]4CC[N]5CC[N]1[Mn]5243([Cl])[Cl] [Compound 12] | 10.20 | 5.39 | – | –
C=CCC1C[N]2CC[N]3CC[N]4CC[N]5CC[N]1[Mn]4352([Cl])[Cl] (centres unmarked) [Compound 13] | – | 1.63 | – | –
FC(F)(F)CC1C[N]2CC[N]3CC[N]4CC[N]5CC[N]1[Mn]4352([Cl])[Cl] (centres unmarked) [Compound 9] | 2.77 | 1.68 | – | –
O=C(OC[C@H]1C[N]2[C@@H](COC(=O)c3ccccc3)C[N]3[C@@H](COC(=O)c4ccccc4)C[N]4[C@@H](COC(=O)c5ccccc5)C[N]5CC[N]1[Mn]5423([Cl])[Cl])c1ccccc1 [Compound 36] | 0.63 | 0.49 | – | –
C[C@@H]1C[N]2[C@@H](C)C[N]3CC[N]4C[C@H](C)[N]5[C@@H](COc6ccco6)C[N]1[Mn]3425([Cl])[Cl] [Compound 24] | 2.55 | 2.55 | – | –
CC(C)C(=O)OC[C@@H]1C[N]2[C@@H]3CCCC[C@H]3[N]3CC[N]4C5CCCCC5[N]5CC[N]1[Mn]5432([Cl])[Cl] (some centres unmarked) [Compound 37] | 3.08 | – | – | –
[Cl][Mn]1234([Cl])[N]5CC[N]1CC[N]2CC(Cc1ccccc1)[N]3CC[N]4CC5 (centres unmarked) [Compound 2] | 7.21 | 2.57 | – | –
C[C@@H]1C[N]2[C@@H](C)C[N]3[C@@H]4CCCC[C@H]4[N]4C[C@H](C)[N]5CC[N]1[Mn]4352([Cl])[Cl] [Compound 19] | 8.48 | 4.08 | – | –
Oc1ccccc1CC1C[N]2CC[N]3CC[N]4CC[N]5CC[N]1[Mn]4352([Cl])[Cl] (centres unmarked) [Compound 6] | 6.99 | 3.83 | – | –
CCC(=O)OCC1C[N]2CC[N]3[C@@H](COC(=O)CC)C[N]4[C@@H](COC(=O)CC)C[N]5[C@@H](COC(=O)CC)C[N]1[Mn]2354([Cl])[Cl] (some centres unmarked) [Compound 34] | 2.70 | 2.78 | – | –
C[C@@H]1C[N]2[C@@H](C)C[N]3[C@@H](C)C[N]4[C@H](C)C[N]5[C@@H](C)C[N]1[Mn]4523([Cl])[Cl] [Compound 5] | 3.82 | 3.90 | – | –
OC[C@@H]1C[N]2[C@@H]3CCCC[C@H]3[N]3CC[N]4C5CCCCC5[N]5CC[N]1[Mn]5432([Cl])[Cl] (some centres unmarked) [Compound 26] | 10.12 | 3.47 | – | –
Manganese(II) dichloro(4R,9R,11R,14R,19R)-3,10,13,20,26-pentaaza-(2R,21R)-dimethyltetracyclo[20.3.1.0^4,9, 0^14,19]hexacose-1(25),22(26),23-triene [Compound 40] | 90.00 | 11.00 | – | –
[Cl][Mn]1234([Cl])[N]5CC[N]1C1CCCCC1[N]2CC[N]3C1CCCCC1[N]4CC5 (centres unmarked) [Compound 17] | 12.60 | 4.09 | – | –
CCC(=O)OC[C@H]1C[N]2[C@@H]3CCCC[C@H]3[N]3CC[N]4C5CCCCC5[N]5CC[N]1[Mn]5432([Cl])[Cl] (some centres unmarked) [Compound 39] | 3.89 | 2.32 | – | –
CNCCCC[C@@H]1C[N]2CC[N]3CC[N]4CC[N]5[C@@H](CCCCNC)C[N]1[Mn]3425([Cl])[Cl] [Compound 8] | 5.95 | 5.90 | – | –
[Cl-].[Cl-].[Mn+2].c1cc2nc(c1)CN[C@@H]1CCCC[C@H]1NCCN[C@@H]1CCCC[C@H]1NC2 [Compound 38, Manganese (II) dichloro{(4R,9R,14R,19R)-3,10,13,20,26-pentaazatetracyclo [20.3.1.04,9.014,19]hexacosa-1(26),22(23),24-triene}] | 1.64 | 1.19 | ~10% | Active
